Laboratory results taken from US20240197733A1, “A GABA RECEPTOR MODULATOR FOR USE IN THE TREATMENT OF PAIN” (SANIONA A/S, priority 2021, published 2024).

Columns and labels:
[1] = tested on: electrocutaneous stimulation-induced facial pain rodent model; assay: ES-induced facial pain model, mechanical allodynia (Von Frey filaments), acute treatment; assay type: in vivo, Sprague-Dawley rats; settings: for effect on mechanical allodynia (mechanical pain threshold, Von Frey) vs vehicle: acute
Text: (§1) The electrocutaneous stimulation-induced facial pain rodent model is a reproducible orofacial pain model in which depilated cheek area of rats are repeatedly subjected to electrical stimulation. Repeated electrical stimulation at low intensities produces craniofacial pain that mimics the behavioral characteristics of TN such as development of mechanical and thermal allodynia at cheeks despite no visible edema, swelling or excessive injury and tissue damage.
(§2) Male wild type, Sprague-Dawley rats (Charles River Laboratories) born in-house at AfaSci Research Laboratory between May 24, 2020 to May 28, 2020. At approximately 3 months of age (approximately 350 g-450 g body weight) the rats were deemed suitable for the electrocutaneous stimulation-induced facial pain model. Prior to the experiment, the rats were maintained in group cages (3 rats per cage) in a controlled environment (temperature: 21.5±4.5° C./relative humidity: 35-55%) under a standard 12 h light/12 h dark lighting cycle (lights on at 06:00).
(§3) The required quantity of the compounds are weighed and dissolved in 100% DMSO in a volume amounting to 5% of the total volume while placed on a stirrer. The weight of the compounds refers to the free base weights. Once the solution becomes clear/transparent, the remaining volume of the vehicle is added (30% HPBCD prepared in MQ water) to final concentrations of 0.1, 0.3, and 1 mg/ml for Compound 1 and 3 mg/ml of Carbamazepine. The solutions are kept on a stirrer before- and during administration of the compounds to the animals.
(§4) The experimenter assessing the behavioral responses to drug administration is blinded to the drug treatment to the animals. Each treatment group is coded according the scheme below: • A. Vehicle (5% DMSO+30% HPBCD): 10 ml/kg • B. Compound 1: 1 mg/kg • C. Compound 1: 3 mg/kg • D. Compound 1: 10 mg/kg • F. Carbamazepine: 30 mg/kg
Second baseline measurement was carried out similarly to day 1. […] For each animal, the average of the two baseline nociceptive measurements were calculated within each pain modality (mechanical, heat- and cold pain), and used as baseline (“Baseline” point on figures).
Similarly, to day 1- and 2, all rats were subjected to acclimatization to test equipment and decapicone followed by measurements of ES-induced facial mechanical- heat- and cold allodynia (“0” time point on figures). […] Compound 1, vehicle and Carbamazepine was administered perorally in doses of 1, 3, and 10 mg/kg (Compound 1) or 30 mg/kg (carbamazepine) and drug effects on pain thresholds were evaluated 2- and 4 hours after drug administration by assessment of mechanical- (von Frey) and thermal hypersensitivity (heat- and cold stimulation respectively).
(§5) Decrease in ES-induced pain threshold was evaluated 22 hours following electrical stimulation of the depilated left cheek area (between the eye and ear ridge, this is a receptive field of trigeminal nerve) of each rat and was manifested as facial withdrawal following application of Von Frey filaments for mechanical allodynia and a heat lamp and acetone test for thermal hyperalgesia and allodynia respectively. Baseline pain behaviors were measured similarly to ES-induced facial pain measurements, except that rats were not subjected to ES stimulation.
Mechanical pain thresholds were assessed by measuring each rat's facial withdrawal threshold (g) in response to von Frey monofilaments (BioSeb). […]

[2] = tested on: electrocutaneous stimulation-induced facial pain rodent model; assay: ES-induced facial pain model, hot thermal hyperalgesia (lamp test, selective C fiber testing), acute treatment; assay type: in vivo, Sprague-Dawley rats
Text: as §1, §2, §3, §4
Second baseline measurement was carried out similarly to day 1. Immediately following the second baseline recording, each rat received 1 hr of electrocutaneous stimulation at cheek (0.4 mA intensity, 10 ms duration, 1 s inter-pulse interval). For each animal, the average of the two baseline nociceptive measurements were calculated within each pain modality (mechanical, heat- and cold pain), and used as baseline (“Baseline” point on figures).
Similarly, to day 1- and 2, all rats were subjected to acclimatization to test equipment and decapicone followed by measurements of ES-induced facial mechanical- heat- and cold allodynia (“0” time point on figures). Based on the individual rat's mechanical- and thermal hypersensitivity, 40 rats were selected for drug testing. Compound 1, vehicle and Carbamazepine was administered perorally in doses of 1, 3, and 10 mg/kg (Compound 1) or 30 mg/kg (carbamazepine) and drug effects on pain thresholds were evaluated 2- and 4 hours after drug administration by assessment of mechanical- (von Frey) and thermal hypersensitivity (heat- and cold stimulation respectively).
as §5
Immediately following assessment of mechanical pain threshold, thermal (hot- and cold induced) pain was determined. […]

[3] = tested on: electrocutaneous stimulation-induced facial pain rodent model; assay: ES-induced facial pain model, prophylactic treatment, overall conclusion (mechanical and thermal tests); assay type: in vivo, Sprague-Dawley rats; settings: po
Procedure: Unless stated otherwise, the same materials, methods, and provisions of Example 1 were applied to Example 2. The experimenter assessing the behavioral responses to drug administration is blinded to the drug treatment to the animals. Each treatment group is coded according the scheme below: • A. Vehicle (5% DMSO+30% HPBCD): 10 ml/kg • B. Compound 1: 0.3 mg/kg • C. Compound 1: 1 mg/kg • D. Compound 1: 3 mg/kg • F. Compound 1: 3 mg/kg—acute Second baseline measurement was carried out similarly to day 1, For each animal, the average of the two baseline nociceptive measurements was calculated within each pain modality (mechanical, heat- and cold pain), and used as baseline (“Baseline” point on figures). Then all rats in the above respective group (A-D) are given treated as mentioned. Group F received vehicle treatment. Treatment is continued once daily to each group same as Day 2 All rats were treated with respective treatment as per day 3-7. After 1 hr of treatment, each rat was subjected to 1 hr of electrocutaneous stimulation at depilated cheek (0.4 mA intensity, 10 ms duration, 1 s inter-pulse interval). […] Treatment effects on pain thresholds were evaluated 2- and 4 hours after administration by assessing mechanical- (Von Frey) and thermal (heat and cold) withdrawal threshold.

[4] = target: GABAA receptors containing the a5 subunit (Homo sapiens, UniProt P18507+P31644); settings: cited from earlier work
GABAA receptors containing the a5 subunit, sequence (P31644 32-462): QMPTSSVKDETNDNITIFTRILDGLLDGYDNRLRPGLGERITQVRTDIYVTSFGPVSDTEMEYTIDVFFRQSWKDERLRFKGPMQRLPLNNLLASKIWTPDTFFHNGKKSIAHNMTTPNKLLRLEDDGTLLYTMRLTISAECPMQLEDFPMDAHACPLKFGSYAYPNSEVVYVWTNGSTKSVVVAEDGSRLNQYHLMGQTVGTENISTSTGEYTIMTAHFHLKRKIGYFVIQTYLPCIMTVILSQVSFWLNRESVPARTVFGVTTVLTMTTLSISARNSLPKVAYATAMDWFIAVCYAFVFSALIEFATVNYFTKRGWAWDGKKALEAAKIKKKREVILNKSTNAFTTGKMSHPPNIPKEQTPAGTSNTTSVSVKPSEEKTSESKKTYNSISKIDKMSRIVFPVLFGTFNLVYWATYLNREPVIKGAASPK
GABAA receptors containing the a5 subunit, sequence (P47870 25-512 partner limits assumed): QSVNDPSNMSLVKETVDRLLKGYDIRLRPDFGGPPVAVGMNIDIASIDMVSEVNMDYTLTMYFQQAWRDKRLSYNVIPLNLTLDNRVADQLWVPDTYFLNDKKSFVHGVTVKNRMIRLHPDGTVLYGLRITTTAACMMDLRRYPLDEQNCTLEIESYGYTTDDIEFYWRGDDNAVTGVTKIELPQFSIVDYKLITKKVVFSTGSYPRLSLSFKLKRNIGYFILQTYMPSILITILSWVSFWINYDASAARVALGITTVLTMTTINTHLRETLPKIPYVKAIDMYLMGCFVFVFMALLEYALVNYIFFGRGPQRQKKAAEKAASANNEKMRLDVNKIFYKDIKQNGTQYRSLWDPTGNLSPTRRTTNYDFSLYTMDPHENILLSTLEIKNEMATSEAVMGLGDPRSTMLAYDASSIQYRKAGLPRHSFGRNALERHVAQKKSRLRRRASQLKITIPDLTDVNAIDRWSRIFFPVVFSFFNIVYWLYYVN
GABAA receptors containing the a5 subunit, sequence (P18507 40-475): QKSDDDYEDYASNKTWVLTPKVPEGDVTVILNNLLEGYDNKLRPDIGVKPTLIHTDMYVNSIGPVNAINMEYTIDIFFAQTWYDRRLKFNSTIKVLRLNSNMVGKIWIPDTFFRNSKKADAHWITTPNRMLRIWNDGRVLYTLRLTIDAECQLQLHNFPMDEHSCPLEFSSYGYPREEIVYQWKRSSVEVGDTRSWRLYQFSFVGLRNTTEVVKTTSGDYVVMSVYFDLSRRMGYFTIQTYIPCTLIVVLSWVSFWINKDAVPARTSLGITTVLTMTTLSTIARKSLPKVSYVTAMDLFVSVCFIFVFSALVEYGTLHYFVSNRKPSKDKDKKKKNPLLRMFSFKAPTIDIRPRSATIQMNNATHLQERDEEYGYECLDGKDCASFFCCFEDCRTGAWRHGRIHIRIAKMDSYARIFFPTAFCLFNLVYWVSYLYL

SMILES: COc1ncc(-c2cccc(-n3cnc4cc(C(C)(C)O)cnc43)c2)c(OC)n1 [Compound 1, 2-(3-(3-(2,4-dimethoxypyrimidin-5-yl)phenyl)-3H-imidazo[4,5-b]pyridin-6-yl)propan-2-ol]
- effect on mechanical allodynia (mechanical pain threshold, Von Frey) vs vehicle ([1]; 3 mg/kg po, 4 hours post dosing, p<0.05 vs vehicle): significant analgesic effect
- effect on mechanical allodynia (mechanical pain threshold, Von Frey) vs vehicle ([1]; 10 mg/kg po, 2 hrs, p<0.05 vs vehicle): reversed the mechanical allodynia
- effect on mechanical allodynia (mechanical pain threshold, Von Frey) vs vehicle ([1]; 10 mg/kg po, 4 hours post dosing, p<0.0001 vs vehicle): significant analgesic effect
- analgesic effect on mechanical allodynia compared with carbamazepine 30 mg/kg p.o. ([1]; 10 mg/kg po, post 4 hrs of treatment): comparable analgesic effect with carbamazepine
- effect on heat thermal hyperalgesia (facial withdrawal latency) vs vehicle ([2]; 3 mg/kg po, post 2 and 4 hrs, p<0.05 and p<0.001 vs vehicle): significantly reversed the mechanical allodynia
- effect on heat thermal hyperalgesia (facial withdrawal latency) vs vehicle ([2]; 10 mg/kg po, 2 and 4 hrs post dose, p<0.0001): significantly produced reversal of hyperalgesia
- reversal of hyperalgesia in the thermal heat test (conclusion) ([2]; 10 mg/kg po, highest dose tested, similar to Carbamazepine 30 mg/kg): full reversal of hyperalgesia
- effect on heat thermal hyperalgesia (facial withdrawal latency), dose dependence ([2]; 1, 3 and 10 mg/kg po): dose dependently reversed the heat thermal hyperalgesia
- minimal effective dose, heat thermal hyperalgesia ([2]; po, p<0.01 and p<0.05 vs vehicle 2 and 4 hrs post dose): 1 mg/kg
- analgesic effect compared with 10 mg/kg acute dose of Compound 1 or 30 mg/kg of Carbamazepine ([3]; once daily dose of 3 mg/kg, prophylactic): same analgesic effect
- development of ES-induced sensitization (hypersensitivity to mechanical and thermal stimulus) ([3]; prophylactic treatment for 7 days, once daily dose): significantly reduced the development of ES-induced sensitization of the trigeminal sensory system
- positive allosteric modulation of GABAA receptors containing the a5 subunit [4]: to a minor extent
